Assay results: patent US20200181117A1, “SUBSTITUTED 3-HETEROARYLOXY-1H-PYRAZOLES AND SALTS THEREOF AND THEIR USE AS HERBICIDAL ACTIVE SUBSTANCES” (BAYER CROPSCIENCE AKTIENGESELLSCHAFT, priority 2017, published 2020)

Assays:
Format in all cases: in vivo
Polygonum convolvulus [1] = test: Pre-emergence herbicidal action; settings: 1280 g/ha, scored visually after about 3 weeks vs untreated controls
Outline: (§1)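 Weed and crop seeds sown in pots and covered with soil; compounds (WP or EC formulations) sprayed pre-emergence onto soil surface as aqueous suspension/emulsion with 0.5% additive at 600 l/ha water, 1280 g/ha. Greenhouse-grown; visual % effect vs untreated controls scored after about 3 weeks (100% = plants dead).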

Stellaria media [2] = test: Pre-emergence herbicidal action; settings: 1280 g/ha, scored visually after about 3 weeks vs untreated controls
Outline: as §1

Abutilon theophrasti [3] = test: Pre-emergence herbicidal action; settings: 1280 g/ha, scored visually after about 3 weeks vs untreated controls
Outline: as §1

Setaria viridis [4] = test: Pre-emergence herbicidal action; settings: 1280 g/ha, scored visually after about 3 weeks vs untreated controls
Outline: as §1

Viola tricolor [5] = test: Pre-emergence herbicidal action; settings: 1280 g/ha, scored visually after about 3 weeks vs untreated controls
Outline: as §1

Amaranthus retroflexus [6] = test: Pre-emergence herbicidal action; settings: 1280 g/ha, scored visually after about 3 weeks vs untreated controls
Outline: as §1

Matricaria inodora [7] = test: Pre-emergence herbicidal action; settings: 1280 g/ha, scored visually after about 3 weeks vs untreated controls
Outline: as §1

Polygonum convolvulus [8] = test: Post-emergence herbicidal action; settings: 1280 g/ha, rated visually after about 3 weeks vs untreated controls
Outline: (§2)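 Greenhouse weeds in sandy loam sprayed at one-leaf stage (2-3 weeks after sowing) with WP or EC formulations plus 0.5% additive, 600 l/ha water, 1280 g/ha. Activity scored visually about 3 weeks later versus untreated controls (100% = dead, 0% = like control).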

Pharbitis purpurea [9] = test: Post-emergence herbicidal action; settings: 1280 g/ha, rated visually after about 3 weeks vs untreated controls
Outline: as §2

Stellaria media [10] = test: Post-emergence herbicidal action; settings: 1280 g/ha, rated visually after about 3 weeks vs untreated controls
Outline: as §2

Abutilon theophrasti [11] = test: Post-emergence herbicidal action; settings: 1280 g/ha, rated visually after about 3 weeks vs untreated controls
Outline: as §2

Viola tricolor [12] = test: Post-emergence herbicidal action; settings: 1280 g/ha, rated visually after about 3 weeks vs untreated controls
Outline: as §2

Amaranthus retroflexus [13] = test: Post-emergence herbicidal action; settings: 1280 g/ha, rated visually after about 3 weeks vs untreated controls
Outline: as §2

Matricaria inodora [14] = test: Post-emergence herbicidal action; settings: 1280 g/ha, rated visually after about 3 weeks vs untreated controls
Outline: as §2

Alopecurus myosuroides [15] = test: Pre-emergence herbicidal action; settings: 1280 g/ha, scored visually after about 3 weeks vs untreated controls
Outline: as §1

Pharbitis purpurea [16] = test: Pre-emergence herbicidal action; settings: 1280 g/ha, scored visually after about 3 weeks vs untreated controls
Outline: as §1

Hordeum murinum [17] = test: Pre-emergence herbicidal action; settings: 1280 g/ha, scored visually after about 3 weeks vs untreated controls
Outline: as §1

Veronica persica [18] = test: Pre-emergence herbicidal action; settings: 1280 g/ha, scored visually after about 3 weeks vs untreated controls
Outline: as §1

Lolium rigidum [19] = test: Pre-emergence herbicidal action; settings: 1280 g/ha, scored visually after about 3 weeks vs untreated controls
Outline: as §1

Avena fatua [20] = test: Pre-emergence herbicidal action; settings: 1280 g/ha, scored visually after about 3 weeks vs untreated controls
Outline: as §1

Echinochloa crus-galli [21] = test: Pre-emergence herbicidal action; settings: 1280 g/ha, scored visually after about 3 weeks vs untreated controls
Outline: as §1

Alopecurus myosuroides [22] = test: Post-emergence herbicidal action; settings: 1280 g/ha, rated visually after about 3 weeks vs untreated controls
Outline: as §2

Hordeum murinum [23] = test: Post-emergence herbicidal action; settings: 1280 g/ha, rated visually after about 3 weeks vs untreated controls
Outline: as §2

Lolium rigidum [24] = test: Post-emergence herbicidal action; settings: 1280 g/ha, rated visually after about 3 weeks vs untreated controls
Outline: as §2

Setaria viridis [25] = test: Post-emergence herbicidal action; settings: 1280 g/ha, rated visually after about 3 weeks vs untreated controls
Outline: as §2

Avena fatua [26] = test: Post-emergence herbicidal action; settings: 1280 g/ha, rated visually after about 3 weeks vs untreated controls
Outline: as §2

Echinochloa crus-galli [27] = test: Post-emergence herbicidal action; settings: 1280 g/ha, rated visually after about 3 weeks vs untreated controls
Outline: as §2

Veronica persica [28] = test: Post-emergence herbicidal action; settings: 1280 g/ha, rated visually after about 3 weeks vs untreated controls
Outline: as §2

Structure (SMILES) | herbicidal activity on Polygonum convolvulus (Polygonum convolvulus [1]) [%] | herbicidal activity on Stellaria media (Stellaria media [2]) [%] | herbicidal activity on Abutilon theophrasti (Abutilon theophrasti [3]) [%] | herbicidal activity on Setaria viridis (Setaria viridis [4]) [%] | herbicidal activity on Viola tricolor (Viola tricolor [5]) [%] | herbicidal activity on Amaranthus retroflexus (Amaranthus retroflexus [6]) [%] | herbicidal activity on Matricaria inodora (Matricaria inodora [7]) [%] | herbicidal activity on Polygonum convolvulus (Polygonum convolvulus [8]) [%] | herbicidal activity on Stellaria media (Stellaria media [10]) [%] | herbicidal activity on Abutilon theophrasti (Abutilon theophrasti [11]) [%] | herbicidal activity on Viola tricolor (Viola tricolor [12]) [%] | herbicidal activity on Amaranthus retroflexus (Amaranthus retroflexus [13]) [%] | herbicidal activity on Alopecurus myosuroides (Alopecurus myosuroides [15]) [%] | herbicidal activity on Hordeum murinum (Hordeum murinum [17]) [%] | herbicidal activity on Veronica persica (Veronica persica [18]) [%] | herbicidal activity on Lolium rigidum (Lolium rigidum [19]) [%] | herbicidal activity on Echinochloa crus-galli (Echinochloa crus-galli [21]) [%] | herbicidal activity on Alopecurus myosuroides (Alopecurus myosuroides [22]) [%] | herbicidal activity on Setaria viridis (Setaria viridis [25]) [%] | herbicidal activity on Echinochloa crus-galli (Echinochloa crus-galli [27]) [%] | other results
Cc1c(Sc2ccc(F)cc2Cl)c(Oc2ncc(F)cn2)nn1C [Example I-065] | 100 | 100 | 80 | 100 | 100 | 100 | 90 | 100 | 90 | 80 | 100 | 100 |  |  |  |  |  |  |  |  | herbicidal activity on Pharbitis purpurea (Pharbitis purpurea [9]): 100%; herbicidal activity on Matricaria inodora (Matricaria inodora [14]): 80%
Cc1c(Sc2ccc(F)c(F)c2)c(Oc2ncc(F)cn2)nn1C [Example I-093] | 100 | 100 | 100 | 100 | 100 | 100 | 100 | 100 | 100 | 90 | 100 | 100 | 100 | 100 | 100 | 100 | 100 | 100 | 100 | 100 | herbicidal activity on Pharbitis purpurea (Pharbitis purpurea [16]): 80%; herbicidal activity on Avena fatua (Avena fatua [20]): 100%; herbicidal activity on Pharbitis purpurea (Pharbitis purpurea [9]): 90%; herbicidal activity on Hordeum murinum (Hordeum murinum [23]): 90%; herbicidal activity on Lolium rigidum (Lolium rigidum [24]): 100%; herbicidal activity on Avena fatua (Avena fatua [26]): 100%
Cc1c(Sc2cccc(F)c2)c(Oc2ncc(F)cn2)nn1C [Example I-158] | 100 | 100 | 100 | 100 | 100 | 100 | 100 | 100 | 90 | 90 | 100 | 100 | 100 | 100 | 100 | 100 | 100 | 100 | 100 | 100 | herbicidal activity on Avena fatua (Avena fatua [20]): 100%; herbicidal activity on Pharbitis purpurea (Pharbitis purpurea [9]): 80%; herbicidal activity on Lolium rigidum (Lolium rigidum [24]): 100%; herbicidal activity on Avena fatua (Avena fatua [26]): 80%
Cc1c(Sc2ccc(F)cc2)c(Oc2ncc(Cl)cn2)nn1C [Example I-060] | 100 |  | 80 | 90 | 100 | 100 |  | 80 | 100 | 80 | 100 | 100 |  |  | 100 |  | 80 | 90 | 80 | 90 | herbicidal activity on Veronica persica (Veronica persica [28]): 90%; herbicidal activity on Matricaria inodora (Matricaria inodora [14]): 80%
Cc1c(Sc2ccc(F)c(F)c2)c(Oc2cnccn2)nn1C [Example I-141] | 100 | 90 | 100 | 100 | 100 | 100 | 100 | 100 | 100 | 90 | 90 | 100 | 90 | 80 | 100 | 90 | 100 | 80 | 90 | 100 | herbicidal activity on Avena fatua (Avena fatua [20]): 80%; herbicidal activity on Pharbitis purpurea (Pharbitis purpurea [9]): 80%; herbicidal activity on Veronica persica (Veronica persica [28]): 100%; herbicidal activity on Avena fatua (Avena fatua [26]): 80%
Cc1c(Sc2cccc(Cl)c2)c(Oc2ncccn2)nn1C [Example I-069] | 100 | 100 | 100 | 100 | 100 | 100 | 100 | 100 |  | 80 | 100 | 100 | 100 | 100 | 100 | 100 | 100 | 100 | 80 | 80 | herbicidal activity on Avena fatua (Avena fatua [20]): 100%; herbicidal activity on Hordeum murinum (Hordeum murinum [23]): 80%
Cc1c(Sc2ccccc2)c(Oc2ncc(F)cn2)nn1C [Example I-133] | 100 | 100 | 100 | 100 | 100 | 100 | 100 | 100 | 100 | 100 | 100 | 100 | 100 | 100 |  | 100 | 100 | 100 | 100 | 100 | herbicidal activity on Avena fatua (Avena fatua [20]): 100%; herbicidal activity on Pharbitis purpurea (Pharbitis purpurea [9]): 100%; herbicidal activity on Hordeum murinum (Hordeum murinum [23]): 90%; herbicidal activity on Veronica persica (Veronica persica [28]): 100%; herbicidal activity on Lolium rigidum (Lolium rigidum [24]): 90%
Cc1c(Sc2ccc(F)c(F)c2)c(Oc2ncccn2)nn1C [Example I-036] |  | 100 | 100 | 100 | 100 | 90 | 90 | 100 | 90 | 90 | 100 | 100 | 90 | 100 | 100 | 100 | 100 | 90 | 90 | 90 | herbicidal activity on Pharbitis purpurea (Pharbitis purpurea [16]): 80%; herbicidal activity on Avena fatua (Avena fatua [20]): 90%; herbicidal activity on Lolium rigidum (Lolium rigidum [24]): 90%; herbicidal activity on Avena fatua (Avena fatua [26]): 100%
